Key:
[1] = test system: Tyrosine-protein kinase ABL1 (Homo sapiens), P00519 [M351T]; settings: at 10 µM
[2] = biological target: Wee1-like protein kinase 2 (Homo sapiens) (UniProt P0C1S8); settings: at 10 µM
[3] = biological target: T1, Serine/threonine-protein kinase D1 (Homo sapiens) (UniProt Q15139); test: Selectivity interaction (Kinase screening (Nanosyn)) EUB0000604a PRKD1
T1 sequence (whole entry): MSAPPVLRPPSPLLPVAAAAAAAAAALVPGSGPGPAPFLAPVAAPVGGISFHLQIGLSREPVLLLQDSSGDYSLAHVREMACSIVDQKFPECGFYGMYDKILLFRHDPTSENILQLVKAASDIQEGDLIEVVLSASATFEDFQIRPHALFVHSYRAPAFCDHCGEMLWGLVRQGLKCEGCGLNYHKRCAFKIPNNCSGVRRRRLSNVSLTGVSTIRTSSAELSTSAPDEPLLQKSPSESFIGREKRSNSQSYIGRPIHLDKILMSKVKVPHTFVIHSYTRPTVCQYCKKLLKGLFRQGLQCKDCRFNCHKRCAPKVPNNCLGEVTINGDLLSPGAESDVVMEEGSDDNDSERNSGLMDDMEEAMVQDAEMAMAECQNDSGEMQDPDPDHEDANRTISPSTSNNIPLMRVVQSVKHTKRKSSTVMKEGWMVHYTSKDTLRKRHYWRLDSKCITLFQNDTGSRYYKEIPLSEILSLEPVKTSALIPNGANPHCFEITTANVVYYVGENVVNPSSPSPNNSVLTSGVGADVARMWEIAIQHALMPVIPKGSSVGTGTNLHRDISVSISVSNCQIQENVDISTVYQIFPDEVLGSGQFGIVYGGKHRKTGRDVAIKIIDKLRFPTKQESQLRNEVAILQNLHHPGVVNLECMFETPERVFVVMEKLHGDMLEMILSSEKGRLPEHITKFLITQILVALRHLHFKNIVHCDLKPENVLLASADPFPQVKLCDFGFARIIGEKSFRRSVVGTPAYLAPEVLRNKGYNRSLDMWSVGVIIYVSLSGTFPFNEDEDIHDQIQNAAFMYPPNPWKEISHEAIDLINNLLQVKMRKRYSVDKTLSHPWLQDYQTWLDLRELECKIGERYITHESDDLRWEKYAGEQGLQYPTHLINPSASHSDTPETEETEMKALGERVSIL

[4] = biological target: Mitogen-activated protein kinase 14 (Homo sapiens, UniProt Q16539); test: Selectivity interaction (Kinase panel (33PanQinase(R) Activity Assay)) EUB0000877a MAPK14
[5] = biological target: Phosphatidylinositol 4-kinase beta (Homo sapiens, UniProt Q9UBF8); test: Selectivity interaction (KinomeScan (DiscoverX)) EUB0001619a PI4KB; settings: at 1 µM
[6] = biological target: T2, TGF-beta receptor type-1 (Homo sapiens) (UniProt P36897); test: Selectivity interaction (KinomeScan (DiscoverX)) EUB0001619a TGFBR1; settings: at 1 µM
T2 sequence (whole entry): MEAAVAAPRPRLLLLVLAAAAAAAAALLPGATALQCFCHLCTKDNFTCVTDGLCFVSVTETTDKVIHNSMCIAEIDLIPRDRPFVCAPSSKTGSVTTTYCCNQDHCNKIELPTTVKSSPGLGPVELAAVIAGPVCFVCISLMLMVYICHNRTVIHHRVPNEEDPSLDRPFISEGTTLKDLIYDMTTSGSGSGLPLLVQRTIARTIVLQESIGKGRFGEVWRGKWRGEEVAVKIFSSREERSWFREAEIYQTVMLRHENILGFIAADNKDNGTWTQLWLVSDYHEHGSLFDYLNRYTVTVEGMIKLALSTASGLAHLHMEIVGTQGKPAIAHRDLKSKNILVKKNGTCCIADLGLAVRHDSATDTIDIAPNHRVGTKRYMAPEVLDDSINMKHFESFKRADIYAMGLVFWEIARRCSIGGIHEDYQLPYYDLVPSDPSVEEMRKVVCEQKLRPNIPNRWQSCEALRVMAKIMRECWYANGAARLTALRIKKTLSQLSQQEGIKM

[7] = biological target: Receptor tyrosine-protein kinase erbB-2 (Homo sapiens, UniProt P04626); test: Selectivity interaction (KinomeScan (DiscoverX)) EUB0000666a ERBB2; settings: at 10 µM
[8] = biological target: T3, Tyrosine-protein kinase TXK (Homo sapiens) (UniProt P42681); test: Selectivity interaction (KinomeScan (DiscoverX)) EUB0000666a TXK; settings: at 10 µM
T3 sequence (whole entry): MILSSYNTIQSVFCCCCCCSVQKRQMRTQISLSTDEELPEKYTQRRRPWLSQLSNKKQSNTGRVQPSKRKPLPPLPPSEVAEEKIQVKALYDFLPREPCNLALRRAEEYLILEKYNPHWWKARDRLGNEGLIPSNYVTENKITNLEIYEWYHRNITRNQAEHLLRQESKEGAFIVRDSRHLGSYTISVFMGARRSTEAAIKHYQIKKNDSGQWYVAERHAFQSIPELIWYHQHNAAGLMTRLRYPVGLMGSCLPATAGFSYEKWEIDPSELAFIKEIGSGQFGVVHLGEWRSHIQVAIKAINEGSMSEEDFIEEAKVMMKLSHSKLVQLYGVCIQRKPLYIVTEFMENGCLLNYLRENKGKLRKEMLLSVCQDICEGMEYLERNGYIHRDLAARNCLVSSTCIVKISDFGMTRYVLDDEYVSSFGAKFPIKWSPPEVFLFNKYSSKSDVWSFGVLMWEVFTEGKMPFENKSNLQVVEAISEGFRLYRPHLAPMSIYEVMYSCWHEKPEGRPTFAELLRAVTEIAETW

Chain of Mitogen-activated protein kinase 14 (Q16539 whole entry): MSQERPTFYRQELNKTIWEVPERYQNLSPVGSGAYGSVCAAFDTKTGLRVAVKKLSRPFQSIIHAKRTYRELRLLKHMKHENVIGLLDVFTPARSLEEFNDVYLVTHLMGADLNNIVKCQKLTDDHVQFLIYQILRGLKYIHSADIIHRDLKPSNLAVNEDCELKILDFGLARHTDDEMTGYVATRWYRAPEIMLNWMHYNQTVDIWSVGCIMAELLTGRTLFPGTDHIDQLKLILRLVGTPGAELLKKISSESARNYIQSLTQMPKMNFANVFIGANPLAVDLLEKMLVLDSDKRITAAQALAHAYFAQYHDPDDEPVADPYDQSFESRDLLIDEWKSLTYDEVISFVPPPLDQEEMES
Chain of Receptor tyrosine-protein kinase erbB-2 (P04626 whole entry): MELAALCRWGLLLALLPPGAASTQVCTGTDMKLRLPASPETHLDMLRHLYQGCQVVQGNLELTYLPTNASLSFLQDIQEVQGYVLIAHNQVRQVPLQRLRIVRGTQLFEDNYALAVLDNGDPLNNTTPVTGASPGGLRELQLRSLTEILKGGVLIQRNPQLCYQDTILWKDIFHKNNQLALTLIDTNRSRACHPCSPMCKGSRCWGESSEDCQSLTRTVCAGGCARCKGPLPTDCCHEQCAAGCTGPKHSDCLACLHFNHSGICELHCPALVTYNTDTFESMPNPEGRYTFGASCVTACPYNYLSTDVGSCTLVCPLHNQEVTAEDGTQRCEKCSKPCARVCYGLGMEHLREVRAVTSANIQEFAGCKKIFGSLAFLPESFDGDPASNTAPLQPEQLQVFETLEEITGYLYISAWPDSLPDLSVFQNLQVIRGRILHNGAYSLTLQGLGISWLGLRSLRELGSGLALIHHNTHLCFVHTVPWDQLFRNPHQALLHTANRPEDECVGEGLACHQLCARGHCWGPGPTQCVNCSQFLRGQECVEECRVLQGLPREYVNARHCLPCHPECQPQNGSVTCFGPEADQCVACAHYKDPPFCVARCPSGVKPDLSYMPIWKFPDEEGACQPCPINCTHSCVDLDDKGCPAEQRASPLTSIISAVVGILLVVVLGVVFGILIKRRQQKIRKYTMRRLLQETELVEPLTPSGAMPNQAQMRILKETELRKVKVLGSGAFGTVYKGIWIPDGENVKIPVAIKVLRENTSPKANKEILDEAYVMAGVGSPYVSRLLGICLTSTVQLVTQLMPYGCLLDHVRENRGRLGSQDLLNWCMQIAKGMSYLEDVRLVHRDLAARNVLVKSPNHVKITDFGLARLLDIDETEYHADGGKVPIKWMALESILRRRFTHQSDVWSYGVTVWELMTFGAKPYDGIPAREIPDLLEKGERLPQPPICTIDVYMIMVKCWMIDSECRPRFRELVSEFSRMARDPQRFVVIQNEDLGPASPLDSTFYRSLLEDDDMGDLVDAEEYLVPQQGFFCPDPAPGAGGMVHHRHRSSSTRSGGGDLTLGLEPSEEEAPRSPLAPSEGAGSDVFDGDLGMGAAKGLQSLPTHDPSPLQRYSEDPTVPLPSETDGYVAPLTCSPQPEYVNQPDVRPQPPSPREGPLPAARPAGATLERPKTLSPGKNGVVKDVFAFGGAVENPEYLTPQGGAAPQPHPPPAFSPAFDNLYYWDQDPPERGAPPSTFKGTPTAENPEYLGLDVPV
Chain of Wee1-like protein kinase 2 (Homo sapiens) (P0C1S8 whole entry, looked up): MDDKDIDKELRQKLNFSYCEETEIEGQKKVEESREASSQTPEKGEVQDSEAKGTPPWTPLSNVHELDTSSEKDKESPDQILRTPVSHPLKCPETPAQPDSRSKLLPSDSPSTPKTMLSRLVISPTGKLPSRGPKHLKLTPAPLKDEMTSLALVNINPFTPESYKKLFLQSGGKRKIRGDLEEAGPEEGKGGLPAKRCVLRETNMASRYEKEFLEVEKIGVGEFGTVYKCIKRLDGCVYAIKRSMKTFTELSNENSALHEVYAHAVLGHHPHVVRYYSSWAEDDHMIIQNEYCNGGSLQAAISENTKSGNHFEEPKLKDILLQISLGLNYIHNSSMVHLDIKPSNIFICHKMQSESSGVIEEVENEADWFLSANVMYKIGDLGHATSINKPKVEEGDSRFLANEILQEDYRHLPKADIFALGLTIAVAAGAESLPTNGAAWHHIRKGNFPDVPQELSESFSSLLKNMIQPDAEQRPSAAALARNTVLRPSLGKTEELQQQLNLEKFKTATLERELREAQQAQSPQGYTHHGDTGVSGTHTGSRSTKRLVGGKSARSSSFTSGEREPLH
Chain of Phosphatidylinositol 4-kinase beta (Q9UBF8 2-816 limits assumed): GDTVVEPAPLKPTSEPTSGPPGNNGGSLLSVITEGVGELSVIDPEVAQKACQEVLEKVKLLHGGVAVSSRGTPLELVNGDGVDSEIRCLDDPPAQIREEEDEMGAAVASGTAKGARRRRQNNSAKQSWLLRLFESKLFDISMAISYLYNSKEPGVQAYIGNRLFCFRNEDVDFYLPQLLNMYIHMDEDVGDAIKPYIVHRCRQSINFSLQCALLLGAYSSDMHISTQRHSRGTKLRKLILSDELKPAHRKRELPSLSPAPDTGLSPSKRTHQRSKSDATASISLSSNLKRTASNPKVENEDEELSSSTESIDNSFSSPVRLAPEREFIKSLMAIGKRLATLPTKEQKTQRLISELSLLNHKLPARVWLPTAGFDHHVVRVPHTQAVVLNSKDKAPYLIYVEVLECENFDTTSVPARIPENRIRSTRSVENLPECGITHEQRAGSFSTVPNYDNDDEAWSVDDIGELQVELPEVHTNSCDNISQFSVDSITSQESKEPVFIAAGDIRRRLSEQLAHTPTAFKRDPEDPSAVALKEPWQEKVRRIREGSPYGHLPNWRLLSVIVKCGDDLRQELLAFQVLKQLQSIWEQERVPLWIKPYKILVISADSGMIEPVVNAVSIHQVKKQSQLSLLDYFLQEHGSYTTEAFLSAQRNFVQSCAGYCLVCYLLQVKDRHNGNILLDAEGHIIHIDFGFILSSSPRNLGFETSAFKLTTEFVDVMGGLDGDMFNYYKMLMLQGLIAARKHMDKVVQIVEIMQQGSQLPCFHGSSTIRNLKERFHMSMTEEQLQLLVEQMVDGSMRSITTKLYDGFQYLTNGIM

SMILES: Cc1cc([C@@H](C)Nc2ccccc2C(=O)O)c2nc(N3CCOCC3)cc(=O)n2c1 [AZD-6482]
- % of control [1]: 94%
- % of control [2]: 100%

SMILES: Cc1cnc(Nc2ccc(F)cc2Cl)nc1-c1c[nH]c(C(=O)N[C@H](CO)c2cccc(Cl)c2)c1
- % of inhibition [3]: 43%

SMILES: CCC(=O)N1CC[C@H](Nc2ncnc3c2CN(c2cnc(OC)c(C(F)(F)F)c2)CC3)C1 [LENIOLISIB]
- IC50 [4]: > 10 µM

SMILES: N#Cc1cccc(-c2c[nH]c3ncnc(N4CCOCC4)c23)c1
- % of control [5]: 71%
- % of control [6]: 79%

SMILES: O=C(NOC[C@H](O)CO)c1ccc(F)c(F)c1Nc1ccc(I)cc1F
- % of control [7]: 100%
- % of control [8]: 100%

Reference: ChEMBL document CHEMBL5465560, “Selectivity Literature for EUbOPEN Chemogenomic Library” (2024)
